Test results reported in patent US20240124504A1, “AROMATIC HETEROCYCLIC COMPOUND, AND PHARMACEUTICAL COMPOSITION AND APPLICATION THEREOF” (GT APEIRON THERAPEUTICS LIMITED, priority 2020, published 2024).
Like-named read-outs stand apart in the source and are kept apart here.

Columns and labels:
[1] = target: CDK7/cyclinH/MAT1 complex (Homo sapiens, UniProt P50613); assay: In-vitro enzymatic inhibitory activity testing, CDK7 inhibition assay (Caliper EZ Reader II); format: biochemical; settings: CDK7/cyclinH/MAT1 6 nM, 180 min at 27° C.
Method: (§1) CDK12/CyclinK was diluted in an assay buffer (80 mM MES PH 6.5, 0.01% Tween 20, 50 ug/mL BSA, 10 mM MgCl2) to afford a corresponding enzyme solution with the 2.4 concentration. A compound was dissolved in dimethyl sulfoxide (DMSO) at a concentration of 10 mM. […] 2 ul of a test compound solution was mixed with 5 ul of the enzyme solution; after incubation for 10 min, 5 ul of the polypeptide substrate and ATP mixed solution was added; incubation was carried out for 180 min at 27° C.; and then, the reaction was terminated by adding 4 uL of EDTA with a concentration of 120 mM to each sample. […] A CDK9/cyclinT1 complex (8 nM) and a “5-FAM-CDK9tide” peptide substrate (2 IM, synthetic fluorophore-labeled peptide with the following sequence: 5-FAM-GSRTPMY-NH2, wherein 5-FAM was as defined above and NH2 represented C-terminal amide) were used for a CDK9 inhibition assay. […] A CDK2/cyclinE1 complex (0.5 nM) and “5-FAM-CDK7tide” (2 μM) as defined above were used for CDK2 inhibition assay.
(§2) A reaction mixture was analyzed on Caliper EZ Reader II by electrophoretic separation of a fluorogenic substrate and a phosphorylated product. Data were calculated by using GraphPad Prism version 6.0, and IC50 values were adjusted and obtained by using a nonlinear regression model of a dose response curve.

CDK9/cyclinT1 complex = CDK9/cyclinT1 complex (Homo sapiens, UniProt P50750); assay: In-vitro enzymatic inhibitory activity testing, CDK9 inhibition assay (Caliper EZ Reader II); format: biochemical; settings: CDK9/cyclinT1 8 nM, 180 min at 27° C.
Method: as §1, §2

CDK2/cyclinE1 complex = CDK2/cyclinE1 complex (Homo sapiens, UniProt P24941); assay: In-vitro enzymatic inhibitory activity testing, CDK2 inhibition assay (Caliper EZ Reader II); format: biochemical; settings: CDK2/cyclinE1 0.5 nM, 180 min at 27° C.
Method: CDK12/CyclinK was diluted in an assay buffer (80 mM MES PH 6.5, 0.01% Tween 20, 50 ug/mL BSA, 10 mM MgCl2) to afford a corresponding enzyme solution with the 2.4 concentration. […] A CDK9/cyclinT1 complex (8 nM) and a “5-FAM-CDK9tide” peptide substrate (2 IM, synthetic fluorophore-labeled peptide with the following sequence: 5-FAM-GSRTPMY-NH2, wherein 5-FAM was as defined above and NH2 represented C-terminal amide) were used for a CDK9 inhibition assay. […] A CDK2/cyclinE1 complex (0.5 nM) and “5-FAM-CDK7tide” (2 μM) as defined above were used for CDK2 inhibition assay.
as §2

[2] = target: T1, CDK12 (aa686-1082)/cyclinK complex (Homo sapiens, UniProt Q9NYV4); assay: In-vitro enzymatic inhibitory activity testing, CDK12 inhibition assay (Caliper EZ Reader II); format: biochemical; settings: 180 min at 27° C.
T1 construct: A CDK12 (aa686-1082)/cyclinK complex (50 nM)
Method: An assay was carried out in a U-bottom 384-well plate (coming, 4512#), and the reaction temperature was 27° C. CDK7/CyclinH was diluted in an assay buffer (20 mM MES PH 6.75, 0.01% Tween 20, 50 ug/mL BSA, 6 mM MgCl2) to afford a corresponding enzyme solution with the 2.4× concentration. CDK2/CyclinE1 was diluted in an assay buffer (20 mM MES PH 6.75, 0.01% Tween 20, 50 ug/mL BSA, 6 mM MgCl2) to afford a corresponding enzyme solution with the 2.4× concentration. CDK9/CyclinT1 was diluted in an assay buffer (20 mM MES PH 6.75, 0.01% Tween 20, 50 ug/mL BSA, 10 mM MgCl2) to afford a corresponding enzyme solution with the 2.4× concentration. CDK12/CyclinK was diluted in an assay buffer (80 mM MES PH 6.5, 0.01% Tween 20, 50 ug/mL BSA, 10 mM MgCl2) to afford a corresponding enzyme solution with the 2.4 concentration. A compound was dissolved in dimethyl sulfoxide (DMSO) at a concentration of 10 mM. During use, the compound was diluted with DMSO into 10 concentration gradients from 25 nM to 500 uM, and respectively diluted by 8.3 folds in the assay buffer to afford a compound solution with a 6× concentration. A polypeptide substrate and ATP were diluted in the assay buffer to afford a polypeptide substrate and ATP mixed solution with a 2.4× concentration. 2 ul of a test compound solution was mixed with 5 ul of the enzyme solution; after incubation for 10 min, 5 ul of the polypeptide substrate and ATP mixed solution was added; incubation was carried out for 180 min at 27° C.; and then, the reaction was terminated by adding 4 uL of EDTA with a concentration of 120 mM to each sample. […]. Specifically, a CDK7/cyclinH/MAT1 complex (6 nM) and a “5-FAMCD K 7 tide” peptide substrate (2 μM, synthetic fluorophore-labeled peptide with the following sequence: 5-FAM-[…], wherein “5-FAM” refers to 5-carboxyfluorescein) were used for a CDK7 inhibition assay. A CDK9/cyclinT1 complex (8 nM) and a “5-FAM-CDK9tide” peptide substrate (2 IM, synthetic fluorophore-labeled peptide with the following sequence: 5-FAM-GSRTPMY-NH2, wherein 5-FAM was as defined above and NH2 represented C-terminal amide) were used for a CDK9 inhibition assay. A CDK12 (aa686-1082)/cyclinK complex (50 nM) and “5-FAM-CDK9tide” (2 μM) as defined above were used for a CDK12 inhibition assay. A CDK2/cyclinE1 complex (0.5 nM) and “5-FAM-CDK7tide” (2 μM) as defined above were used for CDK2 inhibition assay.
as §2

ovarian cancer A2780 = assay: Cell biological activity detection (CyQuant, 72 hours), A2780; format: cell-based, human; settings: A2780 cells, incubation for 72 hours
Method: A2780 and HCC70 cells were subjected to trypsin digestion treatment, and cell suspensions were respectively transferred to 15 mL centrifuge tubes and centrifuged for 5 min at […]) rpm; supernatant was discarded, and resuspension was carried out in a fresh medium (RPMI 1640+10% FBS), after counting, cells were seeded into a 384-well plate at 2000/well (50 μL of 1640+10% FBS medium was added to the 2nd column and the 23rd column of the 384-well plate, and 50 μL of DPBS was added to the surrounding wells). Incubation was carried out overnight in an incubator (37° C., 5% CO2).
The compound was added to the well plates the next day. The compound had the highest concentration of 10 μM and was diluted at 1:4, and there were a total of 9 concentrations; and a positive compound Paclitaxel had the highest concentration of 1 μM and was diluted at 1:3, and there were a total of 9 concentrations. The DMSO content in each well was unified to 0.2%. The cell plates were centrifuged for 30 seconds at 800 rpm and placed in an incubator (37° C., 5% CO2) for incubation for 72 hours. On the fourth day, a Cyquant reagent (3×) was formulated according to kit instructions, and formulation was carried out for each 384-well plate according to the following proportions: DPBS 11.568 mL, CyQuant®? Direct nucleic acid stain 72 μL, and CyQuant® Direct background suppressor 360 μL. After uniform mixing, the reagent was placed at room temperature for further use. The cell plates were taken out and equilibrated for 30 min at room temperature, and 25 μL of the Cyquant reagent (3×) per well was dispensed into the cells of the 384-well plates by Multi-drop, and incubation was carried out for more than 60 minutes at 37° C. Acumen plate reading (Acumen setting: an excitation wavelength of 488 nm). IC50 results were analyzed by XLFIT5 from IDBS Company.

[3] = CDK12/cyclinK 50 nM, read-out: CDK12 IC50

Sequence of CDK7/cyclinH/MAT1 complex (P50613 whole entry, species assumed): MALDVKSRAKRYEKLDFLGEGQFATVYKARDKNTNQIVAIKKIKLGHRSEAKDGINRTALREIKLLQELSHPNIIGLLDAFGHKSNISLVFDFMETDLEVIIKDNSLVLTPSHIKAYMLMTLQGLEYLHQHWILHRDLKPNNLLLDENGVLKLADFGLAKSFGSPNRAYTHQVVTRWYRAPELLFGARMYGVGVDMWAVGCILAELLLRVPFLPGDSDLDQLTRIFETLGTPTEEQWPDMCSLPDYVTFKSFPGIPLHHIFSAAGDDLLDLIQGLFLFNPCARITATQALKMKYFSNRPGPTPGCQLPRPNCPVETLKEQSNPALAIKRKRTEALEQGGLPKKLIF
Sequence of CDK7/cyclinH/MAT1 complex (P51946 whole entry partner, species assumed): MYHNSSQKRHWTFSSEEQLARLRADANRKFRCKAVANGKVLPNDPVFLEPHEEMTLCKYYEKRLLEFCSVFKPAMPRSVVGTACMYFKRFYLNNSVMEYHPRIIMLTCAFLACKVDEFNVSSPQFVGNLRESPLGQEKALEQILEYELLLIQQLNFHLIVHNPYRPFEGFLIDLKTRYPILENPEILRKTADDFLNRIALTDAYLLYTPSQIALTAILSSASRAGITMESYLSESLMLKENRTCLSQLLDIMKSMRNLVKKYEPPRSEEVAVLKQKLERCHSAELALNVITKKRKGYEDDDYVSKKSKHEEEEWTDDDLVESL
Sequence of CDK7/cyclinH/MAT1 complex (P51948 whole entry partner, species assumed): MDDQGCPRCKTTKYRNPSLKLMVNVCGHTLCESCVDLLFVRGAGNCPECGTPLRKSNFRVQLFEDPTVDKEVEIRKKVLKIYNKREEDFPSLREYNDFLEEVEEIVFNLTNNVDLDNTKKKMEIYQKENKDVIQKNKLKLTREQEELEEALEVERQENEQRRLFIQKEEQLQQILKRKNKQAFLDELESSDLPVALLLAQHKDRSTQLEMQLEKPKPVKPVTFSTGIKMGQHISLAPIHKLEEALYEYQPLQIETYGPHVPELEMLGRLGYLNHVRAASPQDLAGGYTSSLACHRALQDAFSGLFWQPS
Sequence of CDK9/cyclinT1 complex (P50750 whole entry, species assumed): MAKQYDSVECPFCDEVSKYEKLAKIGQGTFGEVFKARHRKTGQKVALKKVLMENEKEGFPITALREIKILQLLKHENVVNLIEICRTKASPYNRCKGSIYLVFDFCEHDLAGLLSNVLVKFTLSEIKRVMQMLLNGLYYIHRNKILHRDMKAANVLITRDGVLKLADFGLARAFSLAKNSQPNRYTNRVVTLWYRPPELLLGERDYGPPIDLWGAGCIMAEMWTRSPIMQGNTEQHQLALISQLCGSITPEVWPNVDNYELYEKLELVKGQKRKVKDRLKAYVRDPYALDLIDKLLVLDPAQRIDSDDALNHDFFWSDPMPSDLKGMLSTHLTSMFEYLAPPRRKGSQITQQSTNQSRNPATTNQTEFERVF
Sequence of CDK9/cyclinT1 complex (O60563 whole entry partner, species assumed): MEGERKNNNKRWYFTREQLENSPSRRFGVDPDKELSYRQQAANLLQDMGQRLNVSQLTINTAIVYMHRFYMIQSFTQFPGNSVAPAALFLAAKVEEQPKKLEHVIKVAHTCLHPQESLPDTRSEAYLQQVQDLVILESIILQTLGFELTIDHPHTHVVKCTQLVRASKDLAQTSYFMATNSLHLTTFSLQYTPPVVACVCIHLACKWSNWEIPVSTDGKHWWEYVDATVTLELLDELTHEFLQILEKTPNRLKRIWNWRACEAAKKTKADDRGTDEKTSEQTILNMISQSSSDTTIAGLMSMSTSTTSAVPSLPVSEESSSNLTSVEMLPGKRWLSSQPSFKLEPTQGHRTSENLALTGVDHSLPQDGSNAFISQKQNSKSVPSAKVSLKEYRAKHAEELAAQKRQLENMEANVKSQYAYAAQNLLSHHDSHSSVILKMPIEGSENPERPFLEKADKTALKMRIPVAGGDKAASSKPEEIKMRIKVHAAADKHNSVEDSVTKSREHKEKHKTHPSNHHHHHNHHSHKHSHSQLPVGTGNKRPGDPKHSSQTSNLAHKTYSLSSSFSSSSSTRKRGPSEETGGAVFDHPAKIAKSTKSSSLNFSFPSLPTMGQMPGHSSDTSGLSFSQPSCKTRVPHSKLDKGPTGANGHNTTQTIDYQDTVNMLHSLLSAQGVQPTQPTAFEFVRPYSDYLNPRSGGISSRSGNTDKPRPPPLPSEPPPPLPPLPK
T1 sequence (Q9NYV4 686-1082, species assumed): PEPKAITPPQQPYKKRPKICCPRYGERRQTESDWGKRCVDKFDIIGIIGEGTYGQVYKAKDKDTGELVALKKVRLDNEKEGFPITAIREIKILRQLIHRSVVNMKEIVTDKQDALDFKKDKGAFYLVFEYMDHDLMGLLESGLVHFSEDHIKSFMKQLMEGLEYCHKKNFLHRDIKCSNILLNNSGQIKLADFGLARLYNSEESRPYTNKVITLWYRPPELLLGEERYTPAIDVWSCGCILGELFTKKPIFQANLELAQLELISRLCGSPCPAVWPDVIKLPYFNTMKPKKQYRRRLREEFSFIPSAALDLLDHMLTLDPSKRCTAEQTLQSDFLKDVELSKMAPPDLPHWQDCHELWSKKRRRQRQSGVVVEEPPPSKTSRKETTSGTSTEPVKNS
T1 sequence (O75909 whole entry partner, species assumed, the tested form may be a part): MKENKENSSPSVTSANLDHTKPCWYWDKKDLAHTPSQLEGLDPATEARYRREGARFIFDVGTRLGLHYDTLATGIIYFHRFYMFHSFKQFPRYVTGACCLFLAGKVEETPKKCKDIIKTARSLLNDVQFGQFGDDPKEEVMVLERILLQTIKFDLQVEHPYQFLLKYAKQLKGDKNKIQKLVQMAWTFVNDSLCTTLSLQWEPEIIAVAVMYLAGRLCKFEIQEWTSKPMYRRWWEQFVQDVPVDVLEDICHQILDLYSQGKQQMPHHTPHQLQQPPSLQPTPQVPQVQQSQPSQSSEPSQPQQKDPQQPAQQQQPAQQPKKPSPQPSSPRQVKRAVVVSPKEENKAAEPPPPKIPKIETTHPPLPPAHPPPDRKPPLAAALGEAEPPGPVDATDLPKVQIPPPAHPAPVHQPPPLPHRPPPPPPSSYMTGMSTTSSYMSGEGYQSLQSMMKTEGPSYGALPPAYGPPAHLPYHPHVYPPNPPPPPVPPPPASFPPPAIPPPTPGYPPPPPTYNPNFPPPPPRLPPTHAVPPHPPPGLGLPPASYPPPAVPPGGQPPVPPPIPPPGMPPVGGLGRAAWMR

Row | SMILES | IC50 [1] [µM] | IC50 (CDK9/cyclinT1 complex) [µM] | IC50 (CDK2/cyclinE1 complex) [µM] | IC50 [2, 3] [µM] | IC50 (ovarian cancer A2780) [µM] | IC50 ([2]; CDK12 IC50, CDK12/cyclinK 50 nM) [µM]
1 | FC(F)(F)c1cnc(NC2CCC3CNCC32)nc1-c1c[nH]c2nc(N3CCOCC3)ccc12 (single isomer, unassigned) [Compound 56] | 0.2 to 5 | > 50 | > 50 | > 50 | 5 to 50 | 
2 | CN(C)CC1CCCC1Nc1ncc(C(F)(F)F)c(-c2c[nH]c3c(P(C)(C)=O)cccc23)n1 (single isomer, unassigned) [Compound 136] | 0.02 to 0.2 | > 50 | > 50 | > 50 |  | 
3 | CP(C)(=O)c1cccc2c(-c3nc(NCC(O)C4CCC4)ncc3C(F)(F)F)c[nH]c12 (single isomer, unassigned) [Compound 139] | 0.02 to 0.2 | > 50 | 5 to 50 | > 50 |  | 
4 | CP(C)(=O)c1cccc2c(-c3nc(NCC(O)C4CCC4)ncc3C(F)(F)F)c[nH]c12 (single isomer, unassigned) [Compound 140] | 0.02 to 0.2 | > 50 | 5 to 50 | > 50 |  | 
5 | CP(C)(=O)c1cccc2c(-c3nc(NC4CC(F)(F)CC4O)ncc3C(F)(F)F)c[nH]c12 (single isomer, unassigned) [Compound 192] | 0.02 to 0.2 |  | 5 to 50 |  |  | 
6 | FC(F)(F)c1cnc(NC2CCCC3(CCCN3)C2)nc1-c1c[nH]c2nc(N3CCOCC3)ccc12 (stereo not drawn) [Compound 38, N-(4-(6-morpholinyl-1H-pyrrolo[2,3-b]pyridin-3-yl)-5-(trifluoromethyl)pyrimidin-2-yl)-1-azaspiro[4.5]decan-7-amine] | 0.02 to 0.2 | 5 to 50 | 5 to 50 | 5 to 50 |  | 
7 | FC(F)(F)c1cnc(NC2CCC3(CCNCC3)C2)nc1-c1c[nH]c2nc(N3CCOCC3)ccc12 (stereo not drawn) [Compound 42, N-(4-(6-morpholinyl-1H-pyrrolo[2,3-b]pyridin-3-yl)-5-(trifluoromethyl)pyrimidin-2-yl)-8-azaspiro[4.5]decan-2-amine] | 0.02 to 0.2 | 5 to 50 | 5 to 50 | 5 to 50 |  | 
8 | FC(F)(F)c1cnc(N[C@@H]2CCC[C@@H]3CNC[C@@H]32)nc1-c1c[nH]c2nc(N3CCOCC3)ccc12 [Compound 45, (3aR,4R,7aS)-N-(4-(6-morpholinyl-1H-pyrrolo[2,3-b]pyridin-3-yl)-5-(trifluoromethyl)pyrimidin-2-yl)octahydro-1H-isoindole-4-amine] | 0.02 to 0.2 | 5 to 50 | 5 to 50 | 5 to 50 |  | 
9 | COc1cc(P(C)(C)=O)c2[nH]cc(-c3nc(N[C@@H](C)CO)ncc3C(F)(F)F)c2c1 [Compound 104] | 0.02 to 0.2 | > 50 | 0.2 to 5 | > 50 |  | 
10 | COc1ccc2c(-c3nc(N[C@@H](C)CO)ncc3C(F)(F)F)c[nH]c2c1P(C)(C)=O [Compound 106, (S)-(3-(2-((1-hydroxypropan-2-yl)amino)-5-(trifluoromethyl)pyrimidin-4-yl)-6-methoxy-1H-indole-7-yl)dimethylphosphine oxide] | 0.02 to 0.2 | 5 to 50 | 0.2 to 5 | 5 to 50 |  | 
11 | CC1([C@@H](CO)Nc2ncc(C(F)(F)F)c(-c3c[nH]c4c(P(C)(C)=O)cccc34)n2)CC1 [Compound 112, (S)-(3-(2-((2-hydroxy-1-(1-methylcyclopropyl)ethyl)amino)-5-(trifluoromethyl)pyrimidin-4-yl)-1H-indole-7-yl)dimethylphosphine oxide] | 0.02 to 0.2 | > 50 | 5 to 50 | > 50 |  | 
12 | CP(C)(=O)c1cccc2c(-c3nc(N[C@@H](CO)C4CCC4)ncc3C(F)(F)F)c[nH]c12 [Compound 113, (R)-(3-(2-((1-cyclobutyl-2-hydroxyethyl)amino)-5-(trifluoromethyl)pyrimidin-4-yl)-1H-indole-7-yl)dimethylphosphine oxide] | 0.02 to 0.2 | > 50 | 5 to 50 | > 50 |  | 
13 | C[C@@H](CO)Nc1ncc(F)c(-c2c[nH]c3c(P(C)(C)=O)cccc23)n1 [Compound 157, (S)-(3-(5-fluoro-2-((1-hydroxypropan-2-yl)amino)pyrimidin-4-yl)-1H-indole-7-yl)dimethylphosphine oxide] | 0.2 to 5 | > 50 | 0.2 to 5 | > 50 |  | 
14 | C[C@@H](CO)Nc1ncc(C(N)=O)c(-c2c[nH]c3c(P(C)(C)=O)cccc23)n1 [Compound 180, (S)-4-(7-(dimethylphosphoryl)-1H-indole-3-yl)-2-((1-hydroxypropan-2-yl)amino)pyrimidine-5-carboxamide] | 5 to 50 | > 50 | > 50 | > 50 |  | 
15 | C[C@@H](CO)Nc1nccc(-c2c[nH]c3c(P(C)(C)=O)cccc23)n1 [Compound 186] | 5 to 50 | > 50 | > 50 | > 50 |  | 
16 | CN[C@@H]1C[C@H]2O[C@@](C)([C@@H]1OC)n1c3ccccc3c3c4c(c5c6ccccc6n2c5c31)C(=O)NC4 [Staurosporine, staurosporine, reference compound] |  |  |  |  |  | 0.2 to 5
